In this assay the target is HLA B*0801 (Homo sapiens, UniProt P01889, A93T/A95T/D138N/E176V/E187T/K202T/Q94N/R180D/S35A/V36M/Y33D/Y91F). Kind of assay: biochemical. The assay is classed as binding.

SMILES strings stand for the structures. Where a SMILES comes first, the peptide text is derived from it.

Molecule `CC[C@H](C)[C@H](NC(=O)[C@@H](N)CS)C(=O)N[C@H](C(=O)N[C@@H](CC(N)=O)C(=O)N[C@@H](CCCCN)C(=O)N[C@@H](Cc1ccccc1)C(=O)N[C@@H](CCSC)C(=O)N[C@@H](CO)C(=O)N[C@@H](Cc1ccccc1)C(=O)O)C(C)C` [3102.0620] (H-CIVNKFMSF-OH) showed an IC50 of 0.06 µM.
Turning to `CC[C@H](C)[C@H](NC(=O)[C@H](CCCNC(=N)N)NC(=O)[C@@H](N)CO)C(=O)N[C@@H](CO)C(=O)N[C@@H](CCCNC(=N)N)C(=O)N[C@@H](Cc1ccccc1)C(=O)N[C@@H](C)C(=O)N[C@@H](CC(N)=O)C(=O)N[C@@H](CC(C)C)C(=O)O` [3102.0622] (H-SRISRFANL-OH), it took 0.02 µM to reach half-maximal inhibition (IC50).
The same measure for `CC[C@H](C)[C@H](NC(=O)[C@@H]1CCCN1C(=O)[C@@H](N)CCC(=O)O)C(=O)N[C@@H](CCCCN)C(=O)N[C@@H](Cc1c[nH]cn1)C(=O)N[C@@H](CCCCN)C(=O)N[C@@H](Cc1ccc(O)cc1)C(=O)N1CCC[C@H]1C(=O)N[C@@H](CC(C)C)C(=O)O` [3102.0624] (H-EPIKHKYPL-OH): 0.0013 µM; for `C[C@H](NC(=O)[C@H](Cc1ccccc1)NC(=O)[C@H](CO)NC(=O)[C@H](CS)NC(=O)[C@H](CCCNC(=N)N)NC(=O)[C@H](Cc1ccc(O)cc1)NC(=O)[C@H](CCCNC(=N)N)NC(=O)[C@H](CCCNC(=N)N)NC(=O)[C@@H](N)CO)C(=O)O` [3102.0625] (H-SRRYRCSFA-OH): 0.052 µM.
The molecule `CC[C@H](C)[C@H](NC(=O)[C@H](CO)NC(=O)[C@H](Cc1c[nH]cn1)NC(=O)[C@H](Cc1ccc(O)cc1)NC(=O)[C@H](CCCNC(=N)N)NC(=O)[C@@H]1CCCN1C(=O)[C@@H](N)Cc1ccccc1)C(=O)N[C@@H](CCC(=O)O)C(=O)N[C@@H](CC(C)C)C(=O)O` [3102.0626] (H-FPRYHSIEL-OH) came in with a 50% inhibitory concentration (IC50) of 0.00049 µM.
As for `CC[C@H](C)[C@H](NC(=O)[C@H](Cc1ccc(O)cc1)NC(=O)[C@@H](NC(=O)[C@@H](N)CO)C(C)C)C(=O)N[C@@H](CCCNC(=N)N)C(=O)N1CCC[C@H]1C(=O)N[C@H](C(=O)N[C@@H](CO)C(=O)N[C@@H](CC(C)C)C(=O)O)[C@@H](C)O` [3102.0627] (H-SVYIRPTSL-OH), the half-inhibitory concentration (IC50) was determined as 0.011 µM.
In the case of `CC[C@H](C)[C@H](NC(=O)[C@@H](N)CO)C(=O)N[C@@H](CC(N)=O)C(=O)N[C@H](C(=O)N[C@@H](CCCCN)C(=O)N[C@@H](Cc1c[nH]cn1)C(=O)N[C@H](C(=O)N[C@@H](CO)C(=O)N[C@H](C(=O)O)C(C)C)[C@@H](C)O)C(C)C` [3102.0630] (H-SINVKHTSV-OH), the concentration for half-maximal inhibition (IC50) came to 0.013 µM.
Turning to `CC[C@H](C)[C@H](NC(=O)[C@H](CCSC)NC(=O)[C@@H](NC(=O)[C@H](CCCCN)NC(=O)[C@H](CC(C)C)NC(=O)[C@@H](N)CO)[C@@H](C)CC)C(=O)N[C@@H](CCC(N)=O)C(=O)N[C@@H](CO)C(=O)N[C@@H](CCSC)C(=O)O` [3102.0631] (H-SLKIMIQSM-OH), the midpoint of inhibition, the IC50, lay at 0.0025 µM.
The same measure for `CC[C@H](C)[C@H](NC(=O)[C@H](Cc1c[nH]cn1)NC(=O)[C@H](Cc1ccccc1)NC(=O)[C@H](CC(C)C)NC(=O)[C@H](CC(N)=O)NC(=O)[C@@H]1CCCN1C(=O)[C@H](CC(C)C)NC(=O)[C@@H](N)CCCNC(=N)N)C(=O)N[C@@H](CC(C)C)C(=O)O` [3102.0632] (H-RLPNLFHIL-OH): 0.069 µM.
For `CC(C)C[C@H](NC(=O)[C@H](CO)NC(=O)[C@@H]1CCCN1C(=O)[C@H](CCCNC(=N)N)NC(=O)[C@H](CCCCN)NC(=O)[C@H](CO)NC(=O)[C@H](CC(C)C)NC(=O)[C@H](CC(C)C)NC(=O)[C@@H](N)C(C)C)C(=O)O` [3102.0634] (H-VLLSKRPSL-OH), inhibition was half-maximal at 0.078 µM (IC50).
Then `CC[C@H](C)[C@H](NC(=O)[C@H](CCCCN)NC(=O)[C@H](CC(C)C)NC(=O)[C@@H](NC(=O)[C@H](Cc1c[nH]cn1)NC(=O)[C@H](CCCCN)NC(=O)[C@H](CCCNC(=N)N)NC(=O)[C@H](CC(C)C)NC(=O)[C@@H](N)CC(C)C)[C@@H](C)O)C(=O)O` [3102.0636] (H-LLRKHTLKI-OH), with 0.021 µM.
For the molecule `CC(C)C[C@H](NC(=O)[C@H](CCCNC(=N)N)NC(=O)[C@H](CCCCN)NC(=O)[C@H](CC(N)=O)NC(=O)[C@H](CCCNC(=N)N)NC(=O)[C@H](CC(C)C)NC(=O)[C@H](CCCNC(=N)N)NC(=O)[C@H](CCCNC(=N)N)NC(=O)[C@@H](N)Cc1c[nH]cn1)C(=O)O` [3102.0641] (H-HRRLRNKRL-OH), it took 0.028 µM to reach half-maximal inhibition (IC50). The IC50 values of the last two molecules are within 1.5-fold of each other.
As to `CC[C@H](C)[C@H](NC(=O)[C@H](CC(N)=O)NC(=O)[C@H](CCCCN)NC(=O)[C@H](Cc1ccccc1)NC(=O)[C@H](CCCNC(=N)N)NC(=O)[C@H](CC(N)=O)NC(=O)[C@H](CCSC)NC(=O)[C@H](CC(C)C)NC(=O)[C@@H](N)Cc1ccc(O)cc1)C(=O)O` [3102.0642] (H-YLMNRFKNI-OH), the IC50 was found to be 0.0013 µM.
Take `CC(C)C[C@H](NC(=O)[C@@H](NC(=O)[C@H](CC(C)C)NC(=O)[C@H](CCCCN)NC(=O)[C@H](CCCNC(=N)N)NC(=O)[C@H](Cc1ccccc1)NC(=O)[C@H](Cc1ccccc1)NC(=O)[C@@H]1CCCN1C(=O)[C@@H](N)Cc1ccc(O)cc1)C(C)C)C(=O)O` [3102.0643] (H-YPFFRKLVL-OH): the midpoint of inhibition, the IC50, lay at 0.0059 µM.
Then `CSCC[C@H](N)C(=O)N[C@@H](CC(C)C)C(=O)N[C@@H](CC(C)C)C(=O)N[C@@H](CS)C(=O)N[C@@H](Cc1c[nH]cn1)C(=O)N[C@@H](CCCCN)C(=O)N1CCC[C@H]1C(=O)N[C@H](C(=O)N[C@@H](CC(C)C)C(=O)O)[C@@H](C)O` [3102.0644] (H-MLLCHKPTL-OH), with 0.019 µM; and `CC[C@H](C)[C@H](NC(=O)[C@H](CCC(=O)O)NC(=O)[C@H](CCCNC(=N)N)NC(=O)[C@H](CC(C)C)NC(=O)[C@@H](N)CO)C(=O)N[C@@H](CO)C(=O)N[C@@H](CC(N)=O)C(=O)N[C@H](C(=O)N[C@H](C(=O)O)C(C)C)[C@@H](C)CC` [3102.0645] (H-SLREISNIV-OH), with 0.01 µM; and `CC(C)C[C@H](NC(=O)[C@H](CO)NC(=O)[C@@H](NC(=O)[C@H](CC(C)C)NC(=O)[C@H](CO)NC(=O)[C@H](CCC(N)=O)NC(=O)[C@H](CCCCN)NC(=O)[C@H](CC(N)=O)NC(=O)[C@@H](N)Cc1ccc(O)cc1)C(C)C)C(=O)O` [3102.0646] (H-YNKQSLVSL-OH), with 0.03 µM.
`CC[C@H](C)[C@H](NC(=O)[C@@H](N)CS)C(=O)N[C@@H](CCCCN)C(=O)N[C@@H](CO)C(=O)N[C@@H](Cc1c[nH]cn1)C(=O)N[C@@H](CO)C(=O)N[C@H](C(=O)N[C@@H](CO)C(=O)N[C@@H](CC(C)C)C(=O)O)C(C)C` [3102.0647] (H-CIKSHSVSL-OH) had an IC50 of 0.0023 µM.
Consider `CC[C@H](C)[C@H](NC(=O)[C@@H](N)CC(N)=O)C(=O)N[C@@H](CCSC)C(=O)N1CCC[C@H]1C(=O)N[C@@H](CC(C)C)C(=O)N[C@@H](Cc1ccccc1)C(=O)N1CCC[C@H]1C(=O)N[C@H](C(=O)N[C@@H](Cc1ccccc1)C(=O)O)[C@@H](C)O` [3102.0648] (H-NIMPLFPTF-OH), for which the half-inhibitory concentration (IC50) turned out to be 0.048 µM.
Consider `CSCC[C@H](NC(=O)[C@H](Cc1ccccc1)NC(=O)[C@H](CCSC)NC(=O)[C@@H](N)CO)C(=O)N[C@@H](CO)C(=O)N[C@@H](CC(C)C)C(=O)N[C@@H](CC(C)C)C(=O)N1CCC[C@H]1C(=O)N[C@@H](C)C(=O)O` [3102.0656] (H-SMFMSLLPA-OH), for which the IC50 was determined as 0.056 µM. This IC50 and that of the molecule before are within 1.5-fold of each other.
`CC[C@H](C)[C@H](NC(=O)[C@H](C)N)C(=O)N[C@@H](CCCCN)C(=O)N[C@@H](CC(C)C)C(=O)NCC(=O)N[C@@H](Cc1ccccc1)C(=O)N[C@@H](CCCCN)C(=O)N[C@@H](CO)C(=O)N[C@@H](CC(C)C)C(=O)O` [3102.0664] (H-AIKLGFKSL-OH) yielded an IC50 of 0.041 µM.
As to `CC[C@H](C)[C@H](NC(=O)[C@H](CCCNC(=N)N)NC(=O)[C@H](Cc1ccc(O)cc1)NC(=O)[C@H](CCCCN)NC(=O)[C@H](CC(N)=O)NC(=O)[C@@H](N)CO)C(=O)N[C@@H](CCCCN)C(=O)N[C@@H](CO)C(=O)N[C@H](C(=O)O)C(C)C` [3102.0666] (H-SNKYRIKSV-OH), half-maximal inhibition (IC50) was put at 0.0027 µM.
The same measure for `CC(C)C[C@H](NC(=O)[C@@H](N)CC(=O)O)C(=O)N[C@@H](CCCNC(=N)N)C(=O)N[C@@H](CCCNC(=N)N)C(=O)N[C@@H](CCCNC(=N)N)C(=O)N[C@@H](Cc1ccccc1)C(=O)N[C@@H](CC(=O)O)C(=O)N[C@H](C(=O)N[C@@H](Cc1ccccc1)C(=O)O)[C@@H](C)O` [3102.0667] (H-DLRRRFDTF-OH): 0.0016 µM; for `CC[C@H](C)[C@H](NC(=O)[C@@H]1CCCN1C(=O)[C@H](CCCCN)NC(=O)[C@@H](NC(=O)[C@H](CCCNC(=N)N)NC(=O)[C@H](CC(N)=O)NC(=O)[C@H](CCCNC(=N)N)NC(=O)[C@H](CCSC)NC(=O)[C@@H](N)CCSC)[C@@H](C)O)C(=O)O` [3102.0668] (H-MMRNRTKPI-OH): 0.0015 µM.
`CSCC[C@H](NC(=O)[C@H](CC(C)C)NC(=O)[C@H](CCCNC(=N)N)NC(=O)[C@H](CCCCN)NC(=O)[C@H](CCSC)NC(=O)[C@H](CCSC)NC(=O)[C@@H](N)CCSC)C(=O)N[C@@H](Cc1ccccc1)C(=O)N[C@@H](CCC(=O)O)C(=O)O` [3102.0672] (H-MMMKRLMFE-OH) registered an IC50 of 0.075 µM.
Then `CC(C)C[C@H](NC(=O)[C@@H](N)CC(C)C)C(=O)N[C@@H](CCCCN)C(=O)N[C@@H](Cc1ccccc1)C(=O)N[C@@H](CCCNC(=N)N)C(=O)N[C@H](C(=O)N[C@@H](CCC(=O)O)C(=O)N[C@@H](CO)C(=O)N[C@@H](CS)C(=O)O)C(C)C` [3102.0675] (H-LLKFRVESC-OH), with 0.074 µM.
`CC[C@H](C)[C@H](NC(=O)[C@H](CCCCN)NC(=O)[C@@H](NC(=O)[C@H](CCCCN)NC(=O)[C@@H](NC(=O)[C@@H](N)CC(=O)O)[C@@H](C)CC)[C@@H](C)O)C(=O)N[C@@H](CCSC)C(=O)N[C@H](C(=O)N[C@@H](CC(C)C)C(=O)O)C(C)C` [3102.0683] (H-DIKTKIMVL-OH) registered a concentration for half-maximal inhibition (IC50) of 0.073 µM.
The same measure for `CSCC[C@H](NC(=O)[C@H](CO)NC(=O)[C@H](Cc1c[nH]cn1)NC(=O)[C@H](CCCCN)NC(=O)[C@@H](NC(=O)[C@H](Cc1ccc(O)cc1)NC(=O)[C@H](CCSC)NC(=O)[C@@H](N)Cc1ccccc1)[C@@H](C)O)C(=O)N[C@@H](CC(C)C)C(=O)O` [3102.0684] (H-FMYTKHSML-OH): 0.0002 µM.

What is called IC50 is the concentration at which inhibition is half-maximal.

Source of the values: publication PMC2248166, “Quantitative peptide binding motifs for 19 human and mouse MHC class I molecules derived using positional scanning combinatorial peptide libraries” (Immunome Research, 2008).
